Experimental data from the supplement of paper PMC11208160.

Experiment: recombinant UMI read abundance after kanamycin selection (control-corrected) (log10(CPM+1)); higher = more efficient recombination; extreme values may be limits of the assay; sequences stand for … in AGTGCAGAGAAAATCGGCCAGTTTTCTCTGCCTGCAGTCCGCATGCCGTGGGACCCCTTGGGTTCTAACCTGTTGCCTAGATTTATGCAGCGGACTGCCTTTCTCCCAAAGTGATAAACCGG…AGGTTGGTTTCACT; site = the 11-nt donor
Outline: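 After plating on IPTG (0.07 mM) plus kanamycin, or unselected, in two replicates, recombinant UMIs were PCR-amplified across the donor–target junction and sequenced. The cells were Escherichia coli co-electroporated with a UMI-tagged donor and donor-binding-loop pair library and a target plasmid with a fixed target and T7-inducible IS621 bridge recombinase. Values are log10(CPM+1), with CPM averaged over replicates and scaled by control-derived factors.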
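Note: IS621 bridge recombinase in Escherichia coli cells against a fixed T5 target plasmid.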

Question: Which “recombinant UMI read abundance (log10)” value does the source give for “CGTTAGTCATGGACCGGTTTTCCCGGTAATCCGTATTTGAG (site CGTTAGTCTCT)” here?
Answer: 2.05

Question: For “ATTGGGACATGGACCGGTTTTCCCGGTAATCCGTATTTGGT (site ATTGGGACTAC)”, which “recombinant UMI read abundance (log10)” value is on record?
Answer: 0.896

Question: With “GGATAAACATGGACCGGTTTTCCCGGTAATCCGTATTTGCC (site GGATAAACTGG)” as the sequence, how does the “recombinant UMI read abundance (log10)” value read?
Answer: 2.49

Question: For “GCCACGCCATGGACCGGTTTTCCCGGTAATCCGTATTTGCA (site GCCACGCCTTT)”, which “recombinant UMI read abundance (log10)” value is on record?
Answer: 0.0202

Question: Which “recombinant UMI read abundance (log10)” value does the source give for “CTCTAAACATGGACCGGTTTTCCCGGTAATCCGTATTTGCT (site CTCTAAACTAG)” here?
Answer: 2.06

Question: With “ACTAGAACATGGACCGGTTTTCCCGGTAATCCGTATTTGAA (site ACTAGAACTCT)” as the sequence, how does the “recombinant UMI read abundance (log10)” value read?
Answer: 0

Question: With “ACTAGAACATGGACCGGTTTTCCCGGTAATCCGTATTTGAT (site ACTAGAACTAT)” as the sequence, how does the “recombinant UMI read abundance (log10)” value read?
Answer: 1.24

Question: Which “recombinant UMI read abundance (log10)” value does the source give for “GTGAAGGCATGGACCGGTTTTCCCGGTAATCCGTATTTGTG (site GTGAAGGCTCA)” here?
Answer: 2.12

Question: With “CGAGTATCATGGACCGGTTTTCCCGGTAATCCGTATTTGAT (site CTAGTATCTGT)” as the sequence, how does the “recombinant UMI read abundance (log10)” value read?
Answer: 0

Question: Which “recombinant UMI read abundance (log10)” value does the source give for “GATACGTCATGGACCGGTTTTCCCGGTAATCCGTATTTGTT (site GCTACGTCTAA)” here?
Answer: 0.00442

Question: With “GAGTGGACATGGACCGGTTTTCCCGGTAATCCGTATTTGAC (site GATTGGACTGT)” as the sequence, how does the “recombinant UMI read abundance (log10)” value read?
Answer: 0

Question: With “CGATCATCATGGACCGGTTTTCCCGGTAATCCGTATTTGCT (site CCAGCATCTAG)” as the sequence, how does the “recombinant UMI read abundance (log10)” value read?
Answer: 0.0355

Question: With “CGAAAGGCATGGACCGGTTTTCCCGGTAATCCGTATTTGCT (site TGAAAGGCTAG)” as the sequence, how does the “recombinant UMI read abundance (log10)” value read?
Answer: 0

Question: Which “recombinant UMI read abundance (log10)” value does the source give for “CGCAATCCATGGACCGGTTTTCCCGGTAATCCGTATTTGGT (site CGGAATCCTAA)” here?
Answer: 0

Question: Which “recombinant UMI read abundance (log10)” value does the source give for “CCGAATCCATGGACCGGTTTTCCCGGTAATCCGTATTTGTA (site CCGAATCCTTA)” here?
Answer: 0

Question: For “ACGGAATCATGGACCGGTTTTCCCGGTAATCCGTATTTGTC (site ACGGAATCTGA)”, which “recombinant UMI read abundance (log10)” value is on record?
Answer: 1.95

Question: Which “recombinant UMI read abundance (log10)” value does the source give for “CGATCATCATGGACCGGTTTTCCCGGTAATCCGTATTTGCT (site CGATAATCTAG)” here?
Answer: 0.558

Question: With “TTGCTCACATGGACCGGTTTTCCCGGTAATCCGTATTTGTC (site TTGCTCACTGA)” as the sequence, how does the “recombinant UMI read abundance (log10)” value read?
Answer: 2.25

Question: For “ACTATAACATGGACCGGTTTTCCCGGTAATCCGTATTTGAG (site ACTACAACTCT)”, which “recombinant UMI read abundance (log10)” value is on record?
Answer: 0.348

Question: Which “recombinant UMI read abundance (log10)” value does the source give for “AGAAAGGCATGGACCGGTTTTCCCGGTAATCCGTATTTGCA (site AGAAAGGCTAG)” here?
Answer: 0

Question: With “ATCTGCCCATGGACCGGTTTTCCCGGTAATCCGTATTTGCT (site ATCTGCCCTAG)” as the sequence, how does the “recombinant UMI read abundance (log10)” value read?
Answer: 0.548

Question: Which “recombinant UMI read abundance (log10)” value does the source give for “ACGAATCCATGGACCGGTTTTCCCGGTAATCCGTATTTGTT (site CGGAATCCTAA)” here?
Answer: 0

Question: With “ACACGCACATGGACCGGTTTTCCCGGTAATCCGTATTTGTC (site ACACGTACTGA)” as the sequence, how does the “recombinant UMI read abundance (log10)” value read?
Answer: 0.934

Question: For “CACGCAGCATGGACCGGTTTTCCCGGTAATCCGTATTTGCT (site CAAGCAGCTAG)”, which “recombinant UMI read abundance (log10)” value is on record?
Answer: 0

Question: Which “recombinant UMI read abundance (log10)” value does the source give for “GGCGTGGCATGGACCGGTTTTCCCGGTAATCCGTATTTGGT (site GGAGTGGCTAC)” here?
Answer: 0.00572

Question: With “AGAGCATCATGGACCGGTTTTCCCGGTAATCCGTATTTGAA (site AGAGCATCTTT)” as the sequence, how does the “recombinant UMI read abundance (log10)” value read?
Answer: 2.33

Question: Which “recombinant UMI read abundance (log10)” value does the source give for “AGTTGTTCATGGACCGGTTTTCCCGGTAATCCGTATTTGTT (site AGTTGTTCTAA)” here?
Answer: 0.233

Question: For “GAAGATTCATGGACCGGTTTTCCCGGTAATCCGTATTTGCT (site GAAGATTCTAT)”, which “recombinant UMI read abundance (log10)” value is on record?
Answer: 0

Question: With “AGTTTCCCATGGACCGGTTTTCCCGGTAATCCGTATTTGTG (site AGTTTCCCTCA)” as the sequence, how does the “recombinant UMI read abundance (log10)” value read?
Answer: 0.0252

Question: With “GTGCGTACATGGACCGGTTTTCCCGGTAATCCGTATTTGCT (site GTGCGTACTAG)” as the sequence, how does the “recombinant UMI read abundance (log10)” value read?
Answer: 2.23

Question: With “CGTTTGGCATGGACCGGTTTTCCCGGTAATCCGTATTTGCT (site TGTTTGGCTAG)” as the sequence, how does the “recombinant UMI read abundance (log10)” value read?
Answer: 0.00607

Question: Which “recombinant UMI read abundance (log10)” value does the source give for “GGGGAGGCATGGACCGGTTTTCCCGGTAATCCGTATTTGTG (site GGGGAGGCTCA)” here?
Answer: 0.851

Question: With “AAGGAGCCATGGACCGGTTTTCCCGGTAATCCGTATTTGGA (site AAGGAGCCTTC)” as the sequence, how does the “recombinant UMI read abundance (log10)” value read?
Answer: 0.02

Question: With “TGCCACCCATGGACCGGTTTTCCCGGTAATCCGTATTTGTT (site AGCCACCCTAA)” as the sequence, how does the “recombinant UMI read abundance (log10)” value read?
Answer: 0.00473

Question: For “TATATTGCATGGACCGGTTTTCCCGGTAATCCGTATTTGTC (site TATATTGCTGA)”, which “recombinant UMI read abundance (log10)” value is on record?
Answer: 0

Question: For “CGGTACCCATGGACCGGTTTTCCCGGTAATCCGTATTTGGT (site CGGTACCCTAC)”, which “recombinant UMI read abundance (log10)” value is on record?
Answer: 0.0101

Question: For “GACCTCACATGGACCGGTTTTCCCGGTAATCCGTATTTGAT (site GACCTCACTAT)”, which “recombinant UMI read abundance (log10)” value is on record?
Answer: 0.626

Question: For “AATTATGCATGGACCGGTTTTCCCGGTAATCCGTATTTGGA (site AAGTATGCTTC)”, which “recombinant UMI read abundance (log10)” value is on record?
Answer: 1.19

Question: Which “recombinant UMI read abundance (log10)” value does the source give for “GATAGATCATGGACCGGTTTTCCCGGTAATCCGTATTTGAG (site GATAGATCTCT)” here?
Answer: 1.83

Question: For “CGTTTGCCATGGACCGGTTTTCCCGGTAATCCGTATTTGCT (site CGTTTGACTAG)”, which “recombinant UMI read abundance (log10)” value is on record?
Answer: 0

Question: Which “recombinant UMI read abundance (log10)” value does the source give for “CGATCATCATGGACCGGTTTTCCCGGTAATCCGTATTTGCT (site CGAGTATCTAG)” here?
Answer: 0

Question: With “ACTAGAACATGGACCGGTTTTCCCGGTAATCCGTATTTGAT (site ACTAGAACTGT)” as the sequence, how does the “recombinant UMI read abundance (log10)” value read?
Answer: 0

Question: Which “recombinant UMI read abundance (log10)” value does the source give for “TCCACCGCATGGACCGGTTTTCCCGGTAATCCGTATTTGCG (site TCCACCGCTAG)” here?
Answer: 0.00776

Question: Which “recombinant UMI read abundance (log10)” value does the source give for “TCGTACGCATGGACCGGTTTTCCCGGTAATCCGTATTTGCC (site TCGTACGCTGG)” here?
Answer: 0

Question: With “TGTAGAACATGGACCGGTTTTCCCGGTAATCCGTATTTGCC (site TGTAGAACTGG)” as the sequence, how does the “recombinant UMI read abundance (log10)” value read?
Answer: 0.754

Question: With “CCCATATCATGGACCGGTTTTCCCGGTAATCCGTATTTGCC (site CCCATATCTGC)” as the sequence, how does the “recombinant UMI read abundance (log10)” value read?
Answer: 0

Question: Which “recombinant UMI read abundance (log10)” value does the source give for “ACTAGTACATGGACCGGTTTTCCCGGTAATCCGTATTTGAG (site ACTAGAACTCT)” here?
Answer: 0.692

Question: Which “recombinant UMI read abundance (log10)” value does the source give for “ACTCCAGCATGGACCGGTTTTCCCGGTAATCCGTATTTGAT (site ACTCCAGCTAT)” here?
Answer: 2.13

Question: For “GGATAAACATGGACCGGTTTTCCCGGTAATCCGTATTTGCC (site GGATACACTGG)”, which “recombinant UMI read abundance (log10)” value is on record?
Answer: 1.01

Question: For “ATAGGTACATGGACCGGTTTTCCCGGTAATCCGTATTTGAC (site ATAGGTACTGT)”, which “recombinant UMI read abundance (log10)” value is on record?
Answer: 2.8

Question: For “AGAAATTCATGGACCGGTTTTCCCGGTAATCCGTATTTGCG (site AGAAATTCTCG)”, which “recombinant UMI read abundance (log10)” value is on record?
Answer: 1.94

Question: With “GAAGATTCATGGACCGGTTTTCCCGGTAATCCGTATTTGTC (site GAAGATTCTCA)” as the sequence, how does the “recombinant UMI read abundance (log10)” value read?
Answer: 0

Question: Which “recombinant UMI read abundance (log10)” value does the source give for “TATTTGACATGGACCGGTTTTCCCGGTAATCCGTATTTGCT (site TATTTGACTAG)” here?
Answer: 2.54

Question: With “TGACTATCATGGACCGGTTTTCCCGGTAATCCGTATTTGCC (site TGACTATCTGG)” as the sequence, how does the “recombinant UMI read abundance (log10)” value read?
Answer: 1.54

Question: For “AATATAACATGGACCGGTTTTCCCGGTAATCCGTATTTGCT (site AATATAACTAG)”, which “recombinant UMI read abundance (log10)” value is on record?
Answer: 1.99

Question: With “AGAAATGCATGGACCGGTTTTCCCGGTAATCCGTATTTGCT (site AGAAAAGCTAG)” as the sequence, how does the “recombinant UMI read abundance (log10)” value read?
Answer: 1.53

Question: With “CGGAATCCATGGACCGGTTTTCCCGGTAATCCGTATTTGTT (site CGGATTTCTAA)” as the sequence, how does the “recombinant UMI read abundance (log10)” value read?
Answer: 0
